Legend:
TYLCV = TYLCV infection suppression test on chemical-sprayed cherry tomatoes exposed to viruliferous adult sweetpotato whiteflies (Test Example 1); format: in vivo, tomato yellow leaf curl virus (TYLCV); settings: for Percentage of TYLCV infection suppressed, Determined value: cherry tomato, 16 plants, PCR and symptom after 30 days
Source text: Seedlings of cherry tomatoes (cultivar: ‘YellowPear’) were transferred to small pots and grown until 2- to 2.5-leaf stages. A chemical having been adjusted to a predetermined concentration by dilution was sprayed thereon in a sufficient amount (the amount was such that the chemical solution dripped from the leaves), and the plants on which the diluted chemical has been sprayed were dried under a shielded condition in a greenhouse. In an aluminum-made large test container (length×width×height =68×44×82 cm, the upper surface and four side surfaces thereof are present as mesh surfaces for aeration), 16 pots containing the chemical-sprayed cherry tomatoes were equally arranged, and installation stands for releasing adult sweetpotato whiteflies were arranged at two positions on a diagonal line in the container. Chemical-resistant adult sweetpotato whiteflies to chemicals such as organophosphorus insecticides, carbamate insecticides, synthetic pyrethroid insecticides, ecdysis regulating insecticides, and neonicotinoid insecticides (hereinafter, chemical resistant adult sweetpotato whiteflies is simply referred to as adult sweetpotato whiteflies) were released for 3 days to suck a cherry tomato for TYLCV acquisition, so that the whiteflies were acquired TYLCV. Note that the chemical-resistant sweetpotato whiteflies used were kindly provided from Kumamoto Agricultural Research Center. The cherry tomato leaves were cut out together with the adult sweetpotato whiteflies settled on the infected cherry tomato, and equally left on the two flying sources in the aluminum-made container. After the leaves wither up, the adult sweetpotato whiteflies spontaneously spread inside the test container. The adult sweetpotato whiteflies were equally scattered to the two flying sources such that the number of individuals released was approximately 1 or 2.5 per plant (e.g.: in the case where the number of the adult sweetpotato whitefly individuals is approximately 1 per plant, 8 whiteflies×2 positions=16 whiteflies in the test container). The release period was set to 7 days. In conducting the test, any test chemical was at a practical concentration. […]

adult whiteflies = test: Observation of adult whitefly survival after spraying compound A; format: in vivo, sweetpotato whiteflies; settings: one week after spraying
Source text: From the above, it is conceivable that the present invention greatly enhances the effect of suppressing plant virus infection attained by the compound A.

Substance: glycerin diacetomonolaurate [compound A]
- Percentage of TYLCV infection suppressed, Corrected value (TYLCV; 1.0 whiteflies/plant, corrected with the untreatment of test plot 5): (50.0) %
- Percentage of TYLCV infection suppressed, Determined value (TYLCV; chemical-resistant adult sweetpotato whiteflies released 1.0 whiteflies/plant for 7 days): 62.5%
- Percentage of TYLCV infection suppressed, Determined value (TYLCV; chemical-resistant adult sweetpotato whiteflies released 2.5 whiteflies/plant for 7 days): 50.0%
- TYLCV infection suppressing effect (in words) (TYLCV; whiteflies released for 7 days on sprayed cherry tomato, corrected value compared with theoretical value): suppressed to some extent
- survival of adult whiteflies after spraying (adult whiteflies): adult whiteflies survived one week thereafter

From US10292385B2, “Method for supression of infection by plant virus” (priority 2014, dated 2019)
